≈ marks a conversion by molar mass, not a printed value. Where a SMILES comes first, the peptide text is derived from it. [ ]: non-standard residue; d: D form. Cha = N[C@@H](CC1CCCCC1)C(=O)O; NMeL = CN[C@@H](CC(C)C)C(=O)O; Orn = NCCC[C@H](N)C(=O)O

In one assay the test system is E. coli 45849. Put plainly: Growth inhibition assay (MIC). It is filed as cell-based, Escherichia coli. As to the method:
(§1) The minimal inhibition concentrations (MIC) of the apidaecin-derived peptides and peptide-derivatives were determined by a growth inhibition assay using a serial peptide dilution in sterilized round-bottom 96-well plates (polystyrene, U-bottom, Greiner Bio-One GmbH) with a final volume of 100 μL per well. The bacteria, e.g., E. coli BL21 A1, were grown in nutrient broth (NB, Carl Roth GmbH+Co. KG, Karlsruhe, Germany) at 37° C. over night. To each well of the 96-well plate, 50 μL of the overnight culture adjusted to 5×10^6 CFU/mL in 1% TSB were added. Lyophilized peptides and peptidomimetics were dissolved in 1% TSB (tryptic soy broth) or water to give a final concentration of 250 μg/mL. Fifty μL of the peptide or peptidomimetics solution were added to the first well of a row on the plate and mixed. Fifty μL of the first well containing the peptide solution were transferred to the second well, mixed and again 50 μL transferred to the next well and so on. Thereby, a two-fold dilution series was obtained starting at 250 μg/mL in the first well down to 120 ng/mL in the 12th well of a row giving a final peptide or peptidomimetics concentration from 125 μg/mL (well 1) to 60 ng/mL (well 12). Plates were incubated at 37° C. for 20 hrs. The absorbance was measured at 595 nm using a TECAN micro plate spectrophotometer (Tecan, Germany). All peptides and peptidomimetics were measured in triplicates. Sterilized water was used as a negative control.
(§2) The following multidrug resistant bacteria strains were tested: • Eschericha coli 45849 and D31, • Klebsiella pneumoniae 123132 and K6, • Salmonella typhi S5 and Salmonella enterica subsp. enterica serovar Typhimurium (ATCC 700408), • Rhizobium radiobacter (ATCC 15955 deposited as Agrobacterium tumefaciens).

The subject of another assay is S. typhi S5. It is filed as cell-based, Salmonella typhi. The settings on record: S5, 20 h. As to the method: as §1, §2
The subject of a further assay is E. coli D31. It is filed as cell-based, Escherichia coli. The following applies: D31, 20 h. As to the method:
as §1, §2

For another assay, the system named is K. Pneumonia 123132. Put plainly: Growth inhibition assay (MIC). It is filed as cell-based, Klebsiella pneumoniae. As to the method:
as §1, §2

For assay [1], the system named is K. Pneumonia K6, ATCC 700603. Description: Growth inhibition assay (MIC). It is filed as cell-based, Klebsiella pneumoniae. The following applies: multidrug resistant strain; 1% TSB, 37° C., 20 hrs. As to the method:
as §1, §2

Assay [2] concerns S. enterica subsp. Enterica serovar. typhi G10215 ATCC 700408. Type of assay: cell-based, Salmonella enterica. The following applies: ATCC 700408, 20 h. As to the method: as §1, §2
For assay [3], the system named is R. radiobatter ATCC 15955. Put plainly: Growth inhibition assay (MIC). It is filed as cell-based, Rhizobium radiobacter. As to the method:
as §1, §2

Where [4] appears, read: multidrug resistant strain, 1% TSB, 37° C., 20 hrs.

With `CC[C@H](C)[C@H](NC(=O)[C@H](Cc1ccc(O)cc1)NC(=O)[C@@H](NC(=O)[C@@H]1CCCN1C(=O)[C@H](CCCNC(=N)N)NC(=O)[C@H](CC(N)=O)NC(=O)[C@H](CC(N)=O)NC(=O)[C@H](CCCN)NC(C)=O)C(C)C)C(=O)N1CCC[C@H]1C(=O)N[C@@H](CCCN)C(=O)N1CCC[C@H]1C(=O)N[C@@H](CCCNC(=N)N)C(=O)N1CCC[C@H]1C(=O)N1CCC[C@H]1C(=O)N[C@@H](Cc1c[nH]cn1)C(=O)N1CCC[C@H]1C(=O)N[C@@H](CCCNC(=N)N)C(=O)N[C@@H](CC(C)C)C(=O)OC` [compound 49] (Ac-[Orn]NNRPVYIP[Orn]PRPPHPRL-OMe), in the assay on E. coli 45849 (45849, 20 h), the “MIC E. coli 45849” value is 2 µg/mL (≈ 0.906 µM). In the assay with S. typhi S5, the “MIC S. typhi S5” value is 4 µg/mL (≈ 1.81 µM). In addition, the “MIC E. coli D31” value against E. coli D31 amounted to 32 µg/mL (≈ 14.5 µM). For the same molecule, in the assay on K. Pneumonia 123132 (20 h), the “MIC K. Pneumonia 123132” value worked out at 64 µg/mL (≈ 29 µM). Also, in assay [1], the “MIC K. Pneumonia K6, ATCC 700603” value is 128 µg/mL (≈ 58 µM). Further, in assay [2], the “MIC S. enterica subsp. Enterica serovar. typhi G10215 ATCC 700408” value is 8 µg/mL (≈ 3.62 µM). Further, in assay [3] (ATCC 15955, 20 h), the “MIC R. radiobatter ATCC 15955” value was 1.3 µg/mL (≈ 0.589 µM).

Consider `CC[C@H](C)[C@H](NC(=O)[C@H](Cc1ccc(O)cc1)NC(=O)[C@@H](NC(=O)[C@@H]1CCCN1C(=O)[C@H](CCCNC(=N)N)NC(=O)[C@H](CC(N)=O)NC(=O)[C@H](CC(N)=O)NC(=O)CN)C(C)C)C(=O)N1CCC[C@H]1C(=O)N[C@@H](CCCNC(=N)N)C(=O)N1CCC[C@H]1C(=O)N[C@@H](CCCNC(=N)N)C(=O)N1CCC[C@H]1C(=O)N1CCC[C@H]1C(=O)N[C@@H](Cc1c[nH]cn1)C(=O)N1CCC[C@H]1C(=O)N[C@@H](CCCNC(=N)N)C(=O)N[C@@H](CC1CCCCC1)C(N)=O` [compound 37] (H-GNNRPVYIPRPRPPHPR[Cha]-NH2), for which, in the assay on E. coli 45849 (setting [4]), the “MIC E. coli 45849” value was 16 µg/mL (≈ 7.35 µM). Also, the “MIC S. typhi S5” value in the assay with S. typhi S5 is 16 µg/mL (≈ 7.35 µM). Besides, in the assay on E. coli D31, the “MIC E. coli D31” value came to 8 µg/mL (≈ 3.68 µM). For the same molecule, in the assay with K. Pneumonia 123132 (setting [4]), the “MIC K. Pneumonia 123132” value turned out to be 16 µg/mL (≈ 7.35 µM). Also, the “MIC K. Pneumonia K6, ATCC 700603” value in assay [1] was determined as 32 µg/mL (≈ 14.7 µM). In assay [2], the “MIC S. enterica subsp. Enterica serovar. typhi G10215 ATCC 700408” value worked out at 8 µg/mL (≈ 3.68 µM). Moreover, the “MIC R. radiobatter ATCC 15955” value in assay [3] (setting [4]) is 10.5 µg/mL (≈ 4.83 µM).

For the molecule `CC[C@H](C)[C@H](NC(=O)[C@H](Cc1ccc(O)cc1)NC(=O)[C@@H](NC(=O)[C@@H]1CCCN1C(=O)[C@H](CCCNC(=N)N)NC(=O)[C@H](CC(N)=O)NC(=O)[C@H](CC(N)=O)NC(=O)CN)C(C)C)C(=O)N1CCC[C@H]1C(=O)N[C@@H](CCCNC(=N)N)C(=O)N1CCC[C@H]1C(=O)N[C@@H](CCCNC(=N)N)C(=O)N1CCC[C@H]1C(=O)N1CCC[C@H]1C(=O)N[C@@H](Cc1c[nH]cn1)C(=O)N1CCC[C@H]1C(=O)N[C@@H](CCCNC(=N)N)C(=O)N(C)[C@@H](CC(C)C)C(N)=O` [compound 34] (H-GNNRPVYIPRPRPPHPR[NMeL]-NH2), in the assay with E. coli 45849 (setting [4]), the “MIC E. coli 45849” value came to 4 µg/mL (≈ 1.86 µM). The “MIC S. typhi S5” value against S. typhi S5 was 8 µg/mL (≈ 3.72 µM). Also, the “MIC E. coli D31” value in the assay with E. coli D31 was determined as 8 µg/mL (≈ 3.72 µM). For the same molecule, the “MIC K. Pneumonia 123132” value against K. Pneumonia 123132 (setting [4]) came out at 32 µg/mL (≈ 14.9 µM). In assay [1], the “MIC K. Pneumonia K6, ATCC 700603” value came to 32 µg/mL (≈ 14.9 µM). Further, the “MIC S. enterica subsp. Enterica serovar. typhi G10215 ATCC 700408” value in assay [2] was in the range of 4 to 8 µg/mL. In addition, in assay [3] (setting [4]), the “MIC R. radiobatter ATCC 15955” value came to 1.3 µg/mL (≈ 0.605 µM).

Regarding `CC[C@H](C)[C@H](NC(=O)[C@H](Cc1ccc(O)cc1)NC(=O)[C@@H](NC(=O)[C@@H]1CCCN1C(=O)[C@H](CCCNC(=N)N)NC(=O)[C@H](CC(N)=O)NC(=O)[C@H](CC(N)=O)NC(=O)[C@@H](N)CCCN)C(C)C)C(=O)N1CCC[C@H]1C(=O)N[C@@H](CCCN)C(=O)N1CCC[C@H]1C(=O)N[C@@H](CCCNC(=N)N)C(=O)N1CCC[C@H]1C(=O)N1CCC[C@H]1C(=O)N[C@@H](Cc1c[nH]cn1)C(=O)N1CCC[C@H]1C(=O)N[C@@H](CCCNC(=N)N)C(=O)N[C@@H](CC1CCCCC1)C(N)=O` [compound 35] (H-[Orn]NNRPVYIP[Orn]PRPPHPR[Cha]-NH2), the “MIC E. coli 45849” value with E. coli 45849 (45849, 20 h) worked out at 16 µg/mL (≈ 7.3 µM). Besides, the “MIC S. typhi S5” value against S. typhi S5 came out at 16 µg/mL (≈ 7.3 µM). Further, the “MIC E. coli D31” value against E. coli D31 came out at 8 µg/mL (≈ 3.65 µM). Moreover, the “MIC K. Pneumonia 123132” value against K. Pneumonia 123132 (20 h) worked out at 32 µg/mL (≈ 14.6 µM). For the same molecule, the “MIC K. Pneumonia K6, ATCC 700603” value in assay [1] came out at 16 µg/mL (≈ 7.3 µM). In assay [2], the “MIC S. enterica subsp. Enterica serovar. typhi G10215 ATCC 700408” value lay in the range of 4 to 8 µg/mL. In addition, the “MIC R. radiobatter ATCC 15955” value in assay [3] (ATCC 15955, 20 h) was 2.6 µg/mL (≈ 1.19 µM).
